Data on 23 compounds can be found in EP1585727B1, “INDOLES USEFUL IN THE TREATMENT OF ANDROGEN-RECEPTOR RELATED DISEASES” (priority 2002, dated 2004).

In this experiment the target is T1, human androgen receptor (Homo sapiens, UniProt P10275).
T1 construct: expressed in transfected cells; host or cells: Chinese hamster ovary (CHO) cells, cell line CHO-AR-pMMTV-LUC 1G12-A5-CA
T1 sequence (P10275 1-920): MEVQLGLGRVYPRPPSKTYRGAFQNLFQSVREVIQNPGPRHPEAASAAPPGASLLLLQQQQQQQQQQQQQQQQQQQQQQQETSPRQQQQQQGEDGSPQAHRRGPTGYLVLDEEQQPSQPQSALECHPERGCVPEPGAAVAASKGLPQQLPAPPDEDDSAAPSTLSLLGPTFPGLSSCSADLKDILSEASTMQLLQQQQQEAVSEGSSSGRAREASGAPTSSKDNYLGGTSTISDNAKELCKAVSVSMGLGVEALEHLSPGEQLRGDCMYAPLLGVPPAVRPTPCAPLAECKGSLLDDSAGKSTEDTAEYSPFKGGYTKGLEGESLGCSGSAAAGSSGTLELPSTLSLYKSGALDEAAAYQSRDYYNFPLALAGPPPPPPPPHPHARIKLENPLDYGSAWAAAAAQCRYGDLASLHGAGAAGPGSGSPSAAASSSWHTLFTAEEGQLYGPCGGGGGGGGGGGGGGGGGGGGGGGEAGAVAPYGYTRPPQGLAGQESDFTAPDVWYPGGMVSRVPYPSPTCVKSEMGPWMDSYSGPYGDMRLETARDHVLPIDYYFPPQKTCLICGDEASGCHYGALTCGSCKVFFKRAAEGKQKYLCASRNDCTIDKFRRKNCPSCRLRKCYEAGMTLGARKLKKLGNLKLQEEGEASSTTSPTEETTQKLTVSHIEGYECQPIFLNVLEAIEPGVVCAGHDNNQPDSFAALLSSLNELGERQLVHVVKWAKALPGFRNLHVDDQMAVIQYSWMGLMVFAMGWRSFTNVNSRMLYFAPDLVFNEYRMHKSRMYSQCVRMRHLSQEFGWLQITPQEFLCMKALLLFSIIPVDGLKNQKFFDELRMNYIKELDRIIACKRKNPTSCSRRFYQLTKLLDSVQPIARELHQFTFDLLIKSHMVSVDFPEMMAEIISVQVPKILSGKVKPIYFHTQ
The experiment in a line: Androgen receptor transactivation assay, androgenic activity in the presence of 0.1 µmol/l onapristone (CHO-AR-pMMTV-LUC cells; Table 5). The class given is cell-based. The following applies: for ago efficacy: maximal intrinsic activity in the presence of 100 nM DHT set at 1.00; for ago potency: potency expressed as percentage of DHT activity. Here is the method: The androgenic activity (EC50, potency, and efficacy) of the compounds in Table 5 was determined in an in vitro bioassay of Chinese hamster ovary (CHO) cells stably transfected with the human androgen receptor expression plasmid and a reporter plasmid in which the MMTV promotor is linked to the luciferase reporter gene. The cell line CHO-AR-pMMTV-LUC 1G12-A5-CA is described in Schoonen et al. (J. Steroid Biochem. Molec. Biol. […]; 74: 213-222). The androgen receptor activity of compounds was determined in the presence of 0.1 µmol/l onapristone. The maximal efficacy in the presence of 100 nmol/l DHT was set as 100%. The potencies are expressed as percentage of DHT activity. Table 5 Androgen receptor activity

`COc1ccc2c(Sc3ccccc3[N+](=O)[O-])cn(Cc3cc(F)c(F)c(F)c3)c2c1` [Compound 94, 6-Methoxy-3-(2-nitro-phenylsulfanyl)-1-(3,4,5-trifluoro-benzyl)-1H indole]: the ago efficacy result was “++ (≥0.80)”; the ago potency result was “+ (between 1% and 5%)”.

In the case of `COc1ccc2c(Sc3ccccc3[N+](=O)[O-])cn(Cc3cc(F)cc(F)c3F)c2c1` [Compound 95, 6-Methoxy-3-(2-nitro-phenylsulfanyl)-1-(2,3,5-trifluoro-benzyl)-1H-indole], the ago efficacy entry is on record as “++ (≥0.80)”; the ago potency result was “± (between 0.1 % and 1%)”.

For the compound `COc1ccc2c(Sc3ccccc3[N+](=O)[O-])cn(Cc3ccc(Cl)nc3)c2c1` [Compound 96, 1-(6-Chloro-pyridin-3-ylmethyl)-6-methoxy-3-(2-nitro-phenylsulfanyl)-1H-indole], the ago efficacy result was “± (between 0.20 and 0.50)”; the ago potency result is “± (between 0.1 % and 1%)”.

With `O=C(CF)Nc1ccc2c(Sc3ccccc3[N+](=O)[O-])cn(Cc3cc(F)cc(F)c3)c2c1` [Compound 97, N-[1-(3,5-Difluoro-benzyl)-3-(2-nitro-phenylsulfanyl)-1H-indol-6-yl]-2-fluoro-acetamide], the ago efficacy result is reported as “++ (≥0.80)”; the ago potency entry is “+ (between 1% and 5%)”.

Regarding `O=C(Nc1ccc2c(Sc3ccccc3[N+](=O)[O-])cn(Cc3cc(F)cc(F)c3)c2c1)C(F)F` [Compound 98, N-[1-(3,5-Difluoro-benzyl)-3-(2-nitro-phenylsulfanyl)-1H-indol-6-yl]-2,2-difluoro-acetamide], the ago efficacy result is “+ (between 0.50 and 0.80)”; the ago potency entry is “++ (>5%)”.

For the compound `CCC(=O)Nc1ccc2c(Sc3ccccc3[N+](=O)[O-])cn(Cc3cc(F)cc(F)c3)c2c1` [Compound 99, N-[1-(3,5-Difluoro-benzyl)-3-(2-nitro-phenylsulfanyl)-1H-indol-6-yl]-propionamide], the ago efficacy result was “+ (between 0.50 and 0.80)”; the ago potency entry was “± (between 0.1 % and 1%)”.

On to `O=C(CF)Nc1ccc2c(Sc3ccccc3[N+](=O)[O-])cn(Cc3ccccn3)c2c1` [Compound 100, 2-Fluoro-N-[3-(2-nitro-phenylsulfanyl)-1-pyridin-2-ylmethyl-1H-indol-6-yl]-acetamide], for which the ago efficacy entry was “++ (≥0.80)”; the ago potency entry was “+ (between 1% and 5%)”.

Turning to `CC(=O)Nc1ccc2c(Sc3ccccc3[N+](=O)[O-])cn(Cc3ccccn3)c2c1` [Compound 101, N-[3-(2-Nitro-phenylsulfanyl)-1-pyridin-2-ylmethyl-1H-indol-6-yl]-acetamide], the ago efficacy entry is “+ (between 0.50 and 0.80)”; the ago potency result is “+ (between 1% and 5%)”.

As to `CCC(=O)Nc1ccc2c(Sc3ccccc3[N+](=O)[O-])cn(Cc3ccccn3)c2c1` [Compound 102, N-[3-(2-Nitro-phenylsulfanyl)-1-pyridin-2-ylmethyl-1H-indol-6-yl]-propionamide], the ago efficacy result was “+ (between 0.50 and 0.80)”; the ago potency result is “+ (between 1% and 5%)”.

Consider `CC(=O)Nc1ccc2c(Sc3ccccc3[N+](=O)[O-])cn(Cc3cccnc3)c2c1` [Compound 103, N-[3-(2-Nitro-phenylsulfanyl)-1-pyridin-3-ylmethyl-1H-indol-6-yl]-acetamide], for which the ago efficacy entry was “+ (between 0.50 and 0.80)”; the ago potency entry is “+ (between 1% and 5%)”.

In the case of `O=C(CF)Nc1ccc2c(Sc3ccccc3[N+](=O)[O-])cn(Cc3cccnc3)c2c1` [Compound 104, 2-Fluoro-N-[3-(2-nitro-phenylsulfanyl)-1-pyridin-3-ylmethyl-1H-indol-6-yl]-acetamide], the ago efficacy entry is listed as “- (<0.20)”; the ago potency result was “+ (between 1% and 5%)”.

As to `CCC(=O)Nc1ccc2c(Sc3ccccc3[N+](=O)[O-])cn(Cc3cccnc3)c2c1` [Compound 105, N-[3-(2-Nitro-phenylsulfanyl)-pyridin-3-ylmethyl-1H-indol-6-yl]-propionamide], the ago efficacy entry was “± (between 0.20 and 0.50)”; the ago potency result was “+ (between 1% and 5%)”.

As for `CS(=O)(=O)Nc1ccc2c(Sc3ccccc3[N+](=O)[O-])cn(Cc3cc(F)cc(F)c3)c2c1` [Compound 106, N-[1-(3,5-Difluoro-benzyl)-3-(2-nitro-phenylsulfanyl)-1H-indol-6-yl]-methanesulfonamide], the ago efficacy result is “++ (≥0.80)”; the ago potency entry was “+ (between 1% and 5%)”.

Turning to `O=[N+]([O-])c1ccccc1Sc1cn(Cc2cc(F)cc(F)c2)c2cc(NS(=O)(=O)c3ccsc3)ccc12` [Compound 107, Thiophene-3-sulfonic acid [1-(3,5-difluoro-benzyl)-3-(2-nitro-phenylsulfanyl)-1H-indol-6-yl]-amide], the ago efficacy entry is given as “++ (≥0.80)”; the ago potency entry is “+ (between 1% and 5%)”.

`Cn1cnc(S(=O)(=O)Nc2ccc3c(Sc4ccccc4[N+](=O)[O-])cn(Cc4cc(F)cc(F)c4)c3c2)c1` [Compound 108, 1-Methyl-1H-imidazole-4-sulfonic acid [1-(3,5-difluoro-benzyl)-3-(2-nitro-phenylsulfanyl)-1H-indol-6-yl]-amide]: the ago efficacy result is listed as “++ (≥0.80)”; the ago potency entry was “+ (between 1% and 5%)”.

Take `CN(C)C(=O)c1ccc2c(Sc3ccccc3[N+](=O)[O-])cn(Cc3ccccn3)c2c1` [Compound 109, 3-(2-Nitro-phenylsulfanyl)-1-pyridin-2-ylmethyl-1H-indole-6-carboxylic acid dimethylamide]: the ago efficacy result was “++ (≥0.80)”; the ago potency entry was “+ (between 1% and 5%)”.

As for `CNC(=O)c1ccc2c(Sc3ccccc3[N+](=O)[O-])cn(Cc3ccccn3)c2c1` [Compound 110, 3-(2-Nitro-phenylsulfanyl)-1-pyridin-2-ylmethyl-1H-indole-6-carboxylic acid methylamide], the ago efficacy result is “+ (between 0.50 and 0.80)”; the ago potency result is “+ (between 1% and 5%)”.

On to `NC(=O)c1ccc2c(Sc3ccccc3[N+](=O)[O-])cn(Cc3ccccn3)c2c1` [Compound 111, 3-(2-Nitro-phenylsulfanyl)-1-pyridin-2-ylmethyl-1H-indole-6-carboxylic acid amide], for which the ago efficacy entry is “± (between 0.20 and 0.50)”; the ago potency entry was “± (between 0.1 % and 1%)”.

Regarding `CNC(=O)c1ccc2c(Sc3ccccc3[N+](=O)[O-])cn(Cc3cccnc3)c2c1` [Compound 112, 3-(2-Nitro-phenylsulfanyl)-1-pyridin-3-ylmethyl-1H-indole-6-carboxylic acid methylamide], the ago efficacy entry was “± (between 0.20 and 0.50)”; the ago potency result is “+ (between 1% and 5%)”.

As for `CCNC(=O)c1ccc2c(Sc3ccccc3[N+](=O)[O-])cn(Cc3cccnc3)c2c1` [Compound 113, 3-(2-Nitro-phenylsulfanyl)-1-pyridin-3-ylmethyl-1H-indole-6-carboxylic acid ethylamide], the ago efficacy result was “+ (between 0.50 and 0.80)”; the ago potency result is “+ (between 1% and 5%)”.

`O=C(NC1CC1)c1ccc2c(Sc3ccccc3[N+](=O)[O-])cn(Cc3cccnc3)c2c1` [Compound 114, 3-(2-Nitro-phenylsulfanyl)-1-pyridin-3-ylmethyl-1H-indole-6-carboxylic acid cyclopropylamide]: the ago efficacy result is given as “++ (≥0.80)”; the ago potency entry was “+ (between 1% and 5%)”.

As to `COc1ccc2c(Sc3ccccc3[N+](=O)[O-])cn(Cc3cncnc3)c2c1` [Compound 115, 6-Methoxy-3-(2-nitro-phenylsulfanyl)-1-pyrimidin-5-ylmethyl-1H-indole], the ago efficacy result was “+ (between 0.50 and 0.80)”; the ago potency entry was “++ (>5%)”.

As for `COc1ccc2c(Sc3ccccc3[N+](=O)[O-])cn(Cc3ccncn3)c2c1` [Compound 116, 6-Methoxy-3-(2-nitro-phenylsulfanyl)-1-pyrimidin-4-ylmethyl-1H-indole], the ago efficacy entry was “+ (between 0.50 and 0.80)”; the ago potency result was “+ (between 1% and 5%)”.
